The values that follow come from patent US10000488B2, “Heterocyclic compound” (TAKEDA PHARMACEUTICAL COMPANY LIMITED, priority 2014, dated 2018).

The structures appear in SMILES notation.

Assay [1] has as its target T1, RORγt (Homo sapiens, UniProt P51449).
T1 sequence (P51449 1-497 isoform P51449-2): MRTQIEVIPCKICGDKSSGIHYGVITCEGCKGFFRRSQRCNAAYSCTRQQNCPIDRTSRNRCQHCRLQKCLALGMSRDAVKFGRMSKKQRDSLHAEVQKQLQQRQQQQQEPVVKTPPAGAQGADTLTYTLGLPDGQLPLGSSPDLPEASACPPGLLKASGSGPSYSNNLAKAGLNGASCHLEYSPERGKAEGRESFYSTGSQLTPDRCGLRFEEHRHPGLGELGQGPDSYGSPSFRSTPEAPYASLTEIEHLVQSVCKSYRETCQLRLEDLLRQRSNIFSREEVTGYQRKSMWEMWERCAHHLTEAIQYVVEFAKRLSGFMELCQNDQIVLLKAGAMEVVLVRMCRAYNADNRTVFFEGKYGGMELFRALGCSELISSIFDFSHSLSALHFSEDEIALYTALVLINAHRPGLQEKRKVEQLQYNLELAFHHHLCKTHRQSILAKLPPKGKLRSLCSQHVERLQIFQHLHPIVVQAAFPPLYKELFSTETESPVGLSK
In words: Jurkat reporter test (human IL-17 ROR response element luciferase reporter, RORγt vector). The class given is cell-based. The following applies: test compound 3 μM; Jurkat cells; read-out: luminescence level inhibitory rate (%) at test compound 3 μM. In short, it runs like this:
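Jurkat cells were electroporated (1350 V, 10 ms, 3 pulses) with the reporter constructs and plated in RPMI with 10% lipid-reduced FCS, 10 mM HEPES pH 7.5 and 5 μM lovastatin. After overnight culture with compound, luciferase activity was measured by luminescence following a 10 min room-temperature incubation with Bright-Glo.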
(In general: A reporter such as luciferase makes a cellular process visible.)

Assay [2] concerns the target T1, RORγt. Put plainly: Cofactor recruitment test (Alpha Screen, biotinylated SRC-1 peptide). The class given is biochemical. The following applies: read-out: signal value inhibitory rate (%) at test compound 1 μM. The method, then:
Cofactor Recruitment Test
Cofactor recruitment test was performed by Alpha Screen (Histidine Detection Kit, PerkinElmer) method. First, a test compound was diluted with an assay buffer (50 mM Tris-HCl (pH 7.5), 50 mM KCl, 1 mM DTT, 0.1% BSA) and added to a 384 well plate by 5 μL. […] The mixture was stood in a dark place for 1 hr, and the signal value was measured by Envision (PerkinElmer).

The target of assay [3] is T1, RORγt. In words: RORγt binding test using fluorescent-labeled synthetic ligand (TR-FRET). Particulars: test compound 1 μM; read-out: binding inhibitory rate (%) of fluorescent-labeled synthetic ligand to RORγt at test compound 1 μM. In short, it runs like this: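 Compound displacement of a fluorescent-labeled synthetic ligand from His-tagged RORγt was read by TR-FRET with a terbium anti-His antibody. Buffer was 20 mM Tris-HCl pH 7.5, 100 mM NaCl, 1 mM DTT and 0.1% BSA, with stocks of 240 nM protein, 12 μM ligand and 8 nM antibody (pre-mix, not final). Incubations were 20 min plus 20 min at room temperature, with excitation at 320 nm, emission at 520 nm and a 100 μs delay.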
In general terms: In TR-FRET formats the signal depends on donor and acceptor labels being close together.

Regarding `CC(C)n1c(=O)n(CC2CC2)c(=O)c2cc(NC(=O)N3CCO[C@@H](C(=O)Nc4cnc(C#N)c(F)c4)C3)ccc21` [Example 103, (2R)-N^2-(6-cyano-5-fluoropyridin-3-yl)-N^4-(3-(cyclopropylmethyl)-1-isopropyl-2,4-dioxo-1,2,3,4-tetrahydroquinazolin-6-yl)morpholine-2,4-dicarboxamide], the inhibition at 3 µM on RORγt [1] was found to be 103%. Moreover, the inhibition at 1 µM on RORγt [2] turned out to be 102%; on RORγt [3], 101%.

As to `CC(C)n1c(=O)n(CC2CC2)c(=O)c2cc(NC(=O)N3CCC[C@@H](NC(=O)c4cccc(Cl)c4)C3)ccc21` [Example 248, (3R)-3-((3-chlorobenzoyl)amino)-N-(3-(cyclopropylmethyl)-1-isopropyl-2,4-dioxo-1,2,3,4-tetrahydroquinazolin-6-yl)piperidine-1-carboxamide], the inhibition at 3 µM on RORγt [1] is 104%. Besides, the inhibition at 1 µM was found to be 104% on RORγt [2] and 102% on RORγt [3].

Consider `CC(C)n1c(=O)n(CC2CC2)c(=O)c2cc(NC(=O)N3CCO[C@@H](C(=O)Nc4ccc(C#N)c(F)c4)C3)c(F)cc21` [Example 172, (2R)-N^2-(4-cyano-3-fluorophenyl)-N^4-(3-(cyclopropylmethyl)-7-fluoro-1-isopropyl-2,4-dioxo-1,2,3,4-tetrahydroquinazolin-6-yl)morpholine-2,4-dicarboxamide], for which the inhibition at 3 µM at RORγt [1] is 105%. The values for the inhibition at 1 µM on RORγt [2] and at RORγt [3] were 111% and 102%, respectively.

Take `CC(C)n1c(=O)n(CC2CC2)c(=O)c2cc(NC(=O)N3CCO[C@@H](C(=O)Nc4ccc(C#N)c(Cl)c4)C3)c(F)cc21` [Example 235, (2R)-N^2-(3-chloro-4-cyanophenyl)-N^4-(3-(cyclopropylmethyl)-7-fluoro-1-isopropyl-2,4-dioxo-1,2,3,4-tetrahydroquinazolin-6-yl)morpholine-2,4-dicarboxamide]: at RORγt [1], the inhibition at 3 µM was 103%. Besides, the inhibition at 1 µM came out at 109% at RORγt [2] and 102% on RORγt [3].

`CC(C)n1c(=O)n(CC2CC2)c(=O)c2cc(NC(=O)N3CCC[C@@H](N4Cc5ccc(Cl)cc5C4=O)C3)c(F)cc21` [Example 336, (3R)-3-(6-chloro-1-oxo-1,3-dihydro-2H-isoindol-2-yl)-N-(3-(cyclopropylmethyl)-7-fluoro-1-isopropyl-2,4-dioxo-1,2,3,4-tetrahydroquinazolin-6-yl)piperidine-1-carboxamide]: the inhibition at 3 µM at RORγt [1] stood at 106%. Moreover, the inhibition at 1 µM worked out at 106% at RORγt [2] and 102% at RORγt [3].

`CC(C)n1c(=O)n(CC2CC2)c(=O)c2cc(NC(=O)N3CCO[C@@H](C(=O)Nc4cc(F)c(C#N)cc4F)C3)c(F)cc21` [Example 171, (2R)-N^2-(4-cyano-2,5-difluorophenyl)-N^4-(3-(cyclopropylmethyl)-7-fluoro-1-isopropyl-2,4-dioxo-1,2,3,4-tetrahydroquinazolin-6-yl)morpholine-2,4-dicarboxamide]: the inhibition at 3 µM on RORγt [1] turned out to be 103%. Besides, the inhibition at 1 µM came to 107% on RORγt [2] and 101% on RORγt [3].

Regarding `CC(C)n1c(=O)n(CC2CC2)c(=O)c2cc(NC(=O)N3CCC[C@@H](NC(=O)c4ccc(CNC(=O)OC(C)(C)C)cc4)C3)ccc21` [Example 274, tert-Butyl (4-(((3R)-1-((3-(cyclopropylmethyl)-1-isopropyl-2,4-dioxo-1,2,3,4-tetrahydroquinazolin-6-yl)carbamoyl)piperidin-3-yl)carbamoyl)benzyl) carbamate], on RORγt [1], the inhibition at 3 µM came out at 101%. Besides, the inhibition at 1 µM at RORγt [2] was determined as 89%; at RORγt [3] it was 102%.

Regarding `COc1ccc(C(=O)N[C@@H]2CCCN(C(=O)Nc3cc4c(=O)n(CC5CC5)c(=O)n(C(C)C)c4cc3F)C2)c(F)c1` [Example 291, (3R)-N-(3-(cyclopropylmethyl)-7-fluoro-1-isopropyl-2,4-dioxo-1,2,3,4-tetrahydroquinazolin-6-yl)-3-((2-fluoro-4-methoxybenzoyl)amino)piperidine-1-carboxamide], the inhibition at 3 µM on RORγt [1] was determined as 101%. Besides, the inhibition at 1 µM on RORγt [2] is 107%; at RORγt [3] it was 102%.

As to `CC(C)n1c(=O)n(CC2CC2)c(=O)c2cc(NC(=O)N3CCC[C@@H](NC(=O)c4ccc5c(c4)CCN(C(=O)OC(C)(C)C)C5)C3)c(F)cc21` [Example 340, tert-butyl 6-(((3R)-1-((3-(cyclopropylmethyl)-7-fluoro-1-isopropyl-2,4-dioxo-1,2,3,4-tetrahydroquinazolin-6-yl)carbamoyl)piperidin-3-yl)carbamoyl)-3,4-dihydroisoquinoline-2 (1H)-carboxylate], the inhibition at 3 µM at RORγt [1] is 107%. The inhibition at 1 µM at RORγt [2] is 92%; at RORγt [3], 98%.

On to `CC(C)n1c(=O)n(CC2CC2)c(=O)c2cc(NC(=O)N3CCC[C@@H](NC(=O)c4ccc(CNC(=O)OC(C)(C)C)cc4)C3)c(F)cc21` [Example 319, tert-Butyl (4-(((3R)-1-((3-(cyclopropylmethyl)-7-fluoro-1-isopropyl-2,4-dioxo-1,2,3,4-tetrahydroquinazolin-6-yl)carbamoyl)piperidin-3-yl)carbamoyl)benzyl)carbamate], for which the inhibition at 3 µM at RORγt [1] turned out to be 103%. In addition, the inhibition at 1 µM on RORγt [2] worked out at 95%; at RORγt [3], 101%.

For `CC(C)n1c(=O)n(CC2CC2)c(=O)c2cc(NC(=O)N3CCC[C@@H](NC(=O)c4ccc(C#N)cc4)C3)c(F)cc21` [Example 284, (3R)-3-((4-cyanobenzoyl)amino)-N-(3-(cyclopropylmethyl)-7-fluoro-1-isopropyl-2,4-dioxo-1,2,3,4-tetrahydroquinazolin-6-yl)piperidine-1-carboxamide], on RORγt [1], the inhibition at 3 µM stood at 102%. Further, the inhibition at 1 µM on RORγt [2] worked out at 112%; at RORγt [3], 102%.

As to `Cc1ccc(F)c(C(=O)N[C@@H]2CCCN(C(=O)Nc3cc4c(=O)n(CC5CC5)c(=O)n(C(C)C)c4cc3F)C2)c1` [Example 283, (3R)-N-(3-(cyclopropylmethyl)-7-fluoro-1-isopropyl-2,4-dioxo-1,2,3,4-tetrahydroquinazolin-6-yl)-3-((2-fluoro-5-methylbenzoyl)amino)piperidine-1-carboxamide], the inhibition at 3 µM on RORγt [1] came to 101%. Besides, the inhibition at 1 µM on RORγt [2] is 108%; on RORγt [3] it was 102%.

Turning to `CC(C)n1c(=O)n(CC2CC2)c(=O)c2cc(NC(=O)N3CCC[C@@H](NC(=O)c4ccc(C#N)s4)C3)c(F)cc21` [Example 292, (3R)-3-(((5-cyano-2-thienyl)carbonyl)amino)-N-(3-(cyclopropylmethyl)-7-fluoro-1-isopropyl-2,4-dioxo-1,2,3,4-tetrahydroquinazolin-6-yl)piperidine-1-carboxamide], the inhibition at 3 µM on RORγt [1] turned out to be 101%. The values for the inhibition at 1 µM at RORγt [2] and on RORγt [3] were 112% and 102%, respectively.

Turning to `Cc1ccc(C(=O)N[C@@H]2CCCN(C(=O)Nc3ccc4c(c3)c(=O)n(CC3CC3)c(=O)n4C(C)C)C2)s1` [Example 242, (3R)-N-(3-(cyclopropylmethyl)-1-isopropyl-2,4-dioxo-1,2,3,4-tetrahydroquinazolin-6-yl)-3-(((5-methyl-2-thienyl)carbonyl)amino)piperidine-1-carboxamide], the inhibition at 3 µM on RORγt [1] came out at 103%. In addition, the values for the inhibition at 1 µM on RORγt [2] and at RORγt [3] were 105% and 102%, respectively.

As for `CC(C)n1c(=O)n(CC2CC2)c(=O)c2cc(NC(=O)N3CCC[C@@H](NC(=O)c4ccc(Cl)cc4)C3)ccc21` [Example 247, (3R)-3-((4-chlorobenzoyl)amino)-N-(3-(cyclopropylmethyl)-1-isopropyl-2,4-dioxo-1,2,3,4-tetrahydroquinazolin-6-yl)piperidine-1-carboxamide], on RORγt [1], the inhibition at 3 µM was found to be 103%. For the same compound, the inhibition at 1 µM at RORγt [2] stood at 107%; on RORγt [3], 102%.

In the case of `CC(C)n1c(=O)n(CC2CC2(F)F)c(=O)c2cc(NC(=O)N3CCOC(C(=O)Nc4cnc(C#N)c(Cl)c4)C3)c(F)cc21` (mixture of isomers) [Example 356, (2R)—N^2-(5-chloro-6-cyanopyridin-3-yl)-N^4-(3-((2,2-difluorocyclopropyl)methyl)-7-fluoro-1-isopropyl-2,4-dioxo-1,2,3,4-tetrahydroquinazolin-6-yl)morpholine-2,4-dicarboxamide (mixture of two stereoisomers)], the inhibition at 3 µM at RORγt [1] was found to be 107%. The inhibition at 1 µM at RORγt [2] is 108%; at RORγt [3], 102%.
